The source of these data is patent US12624018B1, “Inhibitors of RIPK2 and medical uses thereof” (Odyssey Therapeutics, Inc., priority 2022, dated 2026).

For one assay, the target named is T1, RIPK2 enzyme (Homo sapiens, UniProt O43353).
T1 construct: purchased Carna 09-128
As to the kind of experiment: RIPK2 inhibition (ADP-Glo Kinase Assay). In kind it is biochemical. The following applies: RIPK2 5 nM, ATP 150 μM, MBP substrate, read-out: RIPK2 IC50. A digest of the protocol:
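Swine MBP substrate; compound and 5 nM RIPK2 first mixed for 30 min at room temperature; buffer pH 7.5 HEPES 50 mM with 10 mM MgCl2, 2 mM DTT, 1 mM EGTA, Brij-35, BSA.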
On the technique in general: In ADP-Glo the light output rises with the ADP produced.

For a further assay, the system named is human NOD2 signaling. The assay can be described thus: Inhibition of human NOD2 signaling in HEK-Blue-hNOD2 cells (L18-MDP stimulated, SEAP reporter). In kind it is cell-based. The note with it: Homo sapiens, HEK-Blue hNOD2, HEK-Blue-hNOD2 cells, NOD2 ligand stimulation, SEAP reporter; read-out: hNOD2 IC50. The protocol:
Materials: Human NOD32-expressing 1TEK293 cells, HEK-Blue™-hNOD2 cells, were developed by Invivogen (catalogue number: hkb-hnod2) using co-transfection of the human NOD2 gene and an optimized secreted embryonic alkaline phosphatase (SEAP) reporter gene into HTEK293 cells. The cell maintenance medium consisted of DMEM (Giboc, 21063-029), heat inactivated FBS, penicillin (100 U/mL), streptomycin (100 μg/mL), Normocin (100 μg/mL), Blasticidin (30 μg/mL), and Zeocin (100 μg/mL). HEK-Blue™-hNOD2 cells were transferred to assay medium consisting of DMEM (Giboc, 21063-029), heat inactivated FBS, penicillin (100 U/mL) and streptomycin (100 μg/mL) prior to stimulation. Stimulation with a NOD2 ligand, L18-MDP (Invivogen, catalogue number: tlrl-lmdp) activated NF-κB and AP-1 which induced the production of SEAP. Levels of SEAP were determined with HEK-Blue™ Detection (referred to as QUANTI-Blue solution), a cell culture medium that allows for real-time detection of SEAP. QUANTI-Blue solution was prepared by adding 1 mL of QB reagent and 1 mL of QB buffer to 98 mL of sterile H2O. Test compounds were prepared into a 10 mM DMSO solution and were serially diluted into 10 points using a 3-fold dilution in a 384 well plate using a TECAN EVO200.
Method: In a 384 well plate, 40 nL of test compound was dispensed using Echo550. HEK-Blue™-hNOD2 cells (Invivogen) were prepared into a cell suspension and 40 μL of the cell suspension (12500 cells per well) was dispensed into the 384 well plate. To activate NOD2 signaling, 40 nL of L18-MDP (final concentration of 0.5 ng/mL) was added and the plate was incubated at 37° C. in a CO2 incubator for 24 hours. After the 24-hour incubation, 5 μL of the induced HEK-Blue hNOD2 cell supernatant was transferred to a new 384-well plate, centrifuged, and 45 μL of QUANTI-Blue solution was added per well and incubated for 3 hours at 37° C. SEAP levels were measured using an Ensight at 620 nm. Percent inhibition of NOD2 signaling was determined using the following equation: (high control−test compound signal)/(High control−low control)×100. The reaction high control was determined using wells with DMSO, cells, L18-MDP, and QUANTI-Blue solution. The reaction low control was determined using wells with DMSO, cells, and QUANTI-Blue solution. 4-parametric curve fit was used to determine the test compound concentration that results in 50% reduction of L18-MDP-driven human NOD2 signaling.
Using the assay described above, inhibition of hNOD2 signaling was also evaluated for GSK 2983559 (Haile at al., J. Med. Chem. 2019, 62, 14, 6482-6494), a known RIPK2 kinase inhibitor: […]

Structures can show the parent of a compound that is named as a salt.

T1 sequence (O43353 1-299 limits assumed): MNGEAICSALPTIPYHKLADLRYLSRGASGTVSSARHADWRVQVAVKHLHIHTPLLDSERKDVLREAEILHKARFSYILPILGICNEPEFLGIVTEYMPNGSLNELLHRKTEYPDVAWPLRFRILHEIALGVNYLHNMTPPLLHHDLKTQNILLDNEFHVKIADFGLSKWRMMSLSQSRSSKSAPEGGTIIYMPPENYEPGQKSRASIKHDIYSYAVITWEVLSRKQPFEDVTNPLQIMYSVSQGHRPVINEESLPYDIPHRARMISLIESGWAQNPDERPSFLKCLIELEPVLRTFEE

On to `[2H]C([2H])([2H])NC(=O)c1cc2c(Oc3ccc(CC(=O)Nc4cnn(C(C)(C)C)c4)cc3C)ccnc2cc1F` [Compound 493, 4-(4-(2-((1-(tert-butyl)-1H-pyrazol-4-yl)amino)-2-oxoethyl)-2-methylphenoxy)-7-fluoro-N-(methyl-d3)quinoline-6-carboxamide], for which the IC50 at RIPK2 enzyme is less than 2.5 nM; with human NOD2 signaling, 0.2 nM.
The corresponding values for `Cc1cc(CC(=O)Nc2cnn(C(C)(C)C)c2)c(F)cc1Oc1ccnc2ccc(-c3cnccc3C)cc12` [Compound 507, N-(1-(tert-butyl)-1H-pyrazol-4-yl)-2-(2-fluoro-5-methyl-4-((6-(4-methylpyridin-3-yl)quinolin-4-yl)oxy)phenyl)acetamide] are less than 2.5 nM and 0.3 nM.
On the same counts, the results for `Cc1cc(CC(=O)Nc2cnn(C(C)(C)C)c2)c(F)cc1Oc1ccnc2ccc(-c3cccnc3C)cc12` [Compound 508, N-(1-(tert-butyl)-1H-pyrazol-4-yl)-2-(2-fluoro-5-methyl-4-((6-(2-methylpyridin-3-yl)quinolin-4-yl)oxy)phenyl)acetamide] are less than 2.5 nM and 2.5 nM.
On the same counts, the results for `[2H]C([2H])([2H])NC(=O)c1ccc2nccc(Oc3cc(F)c(CC(=O)Nc4cnn(C56CC(C5)C6)c4)cc3Cl)c2c1` [Compound 511, 4-(4-(2-((1-(bicyclo[1.1.1]pentan-1-yl)-1H-pyrazol-4-yl)amino)-2-oxoethyl)-2-chloro-5-fluorophenoxy)-N-(methyl-d3)quinoline-6-carboxamide] are less than 2.5 nM and 8 nM.
On to `Cc1cc(CC(=O)Nc2cnn(C(C)(C)C)c2)c(F)cc1Oc1ccnc2ccc(C(=O)NC3(C)COC3)cc12` [Compound 514, 4-(4-(2-((1-(tert-butyl)-1H-pyrazol-4-yl)amino)-2-oxoethyl)-5-fluoro-2-methylphenoxy)-N-(3-methyloxetan-3-yl)quinoline-6-carboxamide], for which the half-maximal inhibitory concentration (IC50) on RIPK2 enzyme was less than 2.5 nM; in the assay on human NOD2 signaling, 1.5 nM.
On to `Cc1cc(CC(=O)Nc2cnn(C(C)(C)C)c2)c(F)cc1Oc1ccnc2ccc(C(=O)N(C)C3(C)CC3)cc12` [Compound 519, 4-(4-(2-((1-(tert-butyl)-1H-pyrazol-4-yl)amino)-2-oxoethyl)-5-fluoro-2-methylphenoxy)-N-methyl-N-(1-methylcyclopropyl)quinoline-6-carboxamide], for which the IC50 on RIPK2 enzyme is less than 2.5 nM; with human NOD2 signaling it was 0.6 nM.
The corresponding values for `Cc1ccnnc1-c1ccc2nccc(Oc3cc(F)c(CC(=O)Nc4cnn(C(C)(C)C)c4)cc3Cl)c2c1` [Compound 520, N-(1-(tert-butyl)-1H-pyrazol-4-yl)-2-(5-chloro-2-fluoro-4-((6-(4-methylpyridazin-3-yl)quinolin-4-yl)oxy)phenyl)acetamide] are less than 2.5 nM and 0.7 nM.
As to `Cc1cc(CC(=O)Nc2cnn(C(C)(C)C)c2)c(F)cc1Oc1ccnc2ccc(-c3nnc(CO)cc3C)cc12` [Compound 521, N-(1-(tert-butyl)-1H-pyrazol-4-yl)-2-(2-fluoro-4-((6-(6-(hydroxymethyl)-4-methylpyridazin-3-yl)quinolin-4-yl)oxy)-5-methylphenyl)acetamide], the IC50 at RIPK2 enzyme is less than 2.5 nM; in the assay on human NOD2 signaling it was 2.2 nM.
On the same counts, the results for `Cc1cc(CC(=O)Nc2cnn(C(C)(C)C)c2)c(F)cc1Oc1ccnc2ccc(-c3ncccc3C(F)(F)F)cc12` [Compound 522, N-(1-(tert-butyl)-1H-pyrazol-4-yl)-2-(2-fluoro-5-methyl-4-((6-(3-(trifluoromethyl)pyridin-2-yl)quinolin-4-yl)oxy)phenyl)acetamide] are 8.6 nM and 25.8 nM.
For `Cc1cc(CC(=O)Nc2cnn(C(C)(C)C)c2)c(F)cc1Oc1ccnc2ccc(-c3cncnc3C)cc12` [Compound 524, N-(1-(tert-butyl)-1H-pyrazol-4-yl)-2-(2-fluoro-5-methyl-4-((6-(4-methylpyrimidin-5-yl)quinolin-4-yl)oxy)phenyl)acetamide], the concentration for half-maximal inhibition (IC50) at RIPK2 enzyme is less than 2.5 nM; with human NOD2 signaling, 0.7 nM.
On the same counts, the results for `Cc1cc(CC(=O)Nc2cnn(C(C)(C)C)c2)c(F)cc1Oc1ccnc2ccc(-c3ccnnc3C)cc12` [Compound 525, N-(1-(tert-butyl)-1H-pyrazol-4-yl)-2-(2-fluoro-5-methyl-4-((6-(3-methylpyridazin-4-yl)quinolin-4-yl)oxy)phenyl)acetamide] are less than 2.5 nM and 5.5 nM.
On to `Cc1cc(CC(=O)Nc2cnn(C(C)(C)C)c2)c(F)cc1Oc1ccnc2ccc(-c3c(C)ncnc3C)cc12` [Compound 526, N-(1-(tert-butyl)-1H-pyrazol-4-yl)-2-(4-((6-(4,6-dimethylpyrimidin-5-yl)quinolin-4-yl)oxy)-2-fluoro-5-methylphenyl)acetamide], for which the IC50 on RIPK2 enzyme was less than 2.5 nM; in the assay with human NOD2 signaling, 16.1 nM.
The corresponding values for `CC(C)(C)n1cc(NC(=O)Cc2cc(Cl)c(Oc3ccnc4ccc(CS(C)(=O)=O)cc34)cc2F)cn1` [Compound 561, N-(1-(tert-butyl)-1H-pyrazol-4-yl)-2-(5-chloro-2-fluoro-4-((6-((methylsulfonyl)methyl)quinolin-4-yl)oxy)phenyl)acetamide] are less than 2.5 nM and 15.4 nM.
On the same counts, the results for `CNC(=O)c1cc2c(Oc3cc(F)c(CC(=O)Nc4cnn(C(C)(C)C)c4)cc3C)ccnc2cc1C` [Compound 564, 4-(4-(2-((1-(tert-butyl)-1H-pyrazol-4-yl)amino)-2-oxoethyl)-5-fluoro-2-methylphenoxy)-N,7-dimethylquinoline-6-carboxamide] are less than 2.5 nM and 10.8 nM.
The corresponding values for `CNC(=O)c1cc2c(Oc3cc(F)c(CC(=O)Nc4cnn(C(C)(C)C)c4)cc3C)ccnc2cc1Cl` [Compound 565, 4-(4-(2-((1-(tert-butyl)-1H-pyrazol-4-yl)amino)-2-oxoethyl)-5-fluoro-2-methylphenoxy)-7-chloro-N-methylquinoline-6-carboxamide] are less than 2.5 nM and 6.9 nM.
`CNC(=O)Cc1ccc2nccc(Oc3cc(F)c(CC(=O)Nc4cnn(C(C)(C)C)c4)cc3C)c2c1` [Compound 567, N-(1-(tert-butyl)-1H-pyrazol-4-yl)-2-(2-fluoro-5-methyl-4-((6-(2-(methylamino)-2-oxoethyl)quinolin-4-yl)oxy)phenyl)acetamide formic acid salt]: the IC50 is less than 2.5 nM on RIPK2 enzyme and 9.8 nM in the assay with human NOD2 signaling.
On the same counts, the results for `CNC(=O)C(C)(C)c1ccc2nccc(Oc3cc(F)c(CC(=O)Nc4cnn(C(C)(C)C)c4)cc3C)c2c1` [Compound 569, 2-(4-(4-(2-((1-(tert-butyl)-1H-pyrazol-4-yl)amino)-2-oxoethyl)-5-fluoro-2-methylphenoxy)quinolin-6-yl)-N,2-dimethylpropanamide] are less than 2.5 nM and 10.4 nM.
The corresponding values for `Cc1cc(CC(=O)Nc2cnn(C(C)(C)C)c2)c(F)cc1Oc1ccnc2ccc(C3(C(N)=O)CC3)cc12` [Compound 570, 1-(4-(4-(2-((1-(tert-butyl)-1H-pyrazol-4-yl)amino)-2-oxoethyl)-5-fluoro-2-methylphenoxy)quinolin-6-yl)cyclopropane-1-carboxamide] are 2.7 nM and 10.5 nM.
The corresponding values for `CNC(=O)C1(c2ccc3nccc(Oc4cc(F)c(CC(=O)Nc5cnn(C(C)(C)C)c5)cc4C)c3c2)CC1` [Compound 571, 1-(4-(4-(2-((1-(tert-butyl)-1H-pyrazol-4-yl)amino)-2-oxoethyl)-5-fluoro-2-methylphenoxy)quinolin-6-yl)-N-methylcyclopropane-1-carboxamide formic acid salt] are 2.9 nM and 4.5 nM.

One may read the IC50 as the point on the concentration scale where inhibition reaches its midpoint.
